Test results taken from article PMC10879502, “Linking ATP and allosteric sites to achieve superadditive binding with bivalent EGFR kinase inhibitors” (Communications Chemistry, 2024).

Experiments:
Assay in all cases: KINOMEscan
Format in all cases: binding
Settings in all cases: 1 μM
[1] = biological target: FGFR2 (Homo sapiens, UniProt P21802)
[2] = biological target: T1, JAK3(JH1domain-catalytic) (Homo sapiens, UniProt P52333)
T1 construct: JAK3(JH1domain-catalytic); purchased Eurofins DiscoverX (KINOMEscan)

[3] = biological target: T2, MTOR (Homo sapiens, UniProt P42345)
T2 construct: purchased Eurofins DiscoverX Corporation

[4] = biological target: RIOK1 (Homo sapiens, UniProt Q9BRS2)
[5] = biological target: T3, GRK3 (Homo sapiens, UniProt P35626)
T3 construct: purchased Eurofins DiscoverX Corporation

[6] = biological target: WEE1 (Homo sapiens, UniProt P30291)
[7] = biological target: T4, MINK (Homo sapiens, UniProt Q8N4C8)
T4 construct: purchased Eurofins DiscoverX Corporation
T4 sequence (Q8N4C8 whole entry): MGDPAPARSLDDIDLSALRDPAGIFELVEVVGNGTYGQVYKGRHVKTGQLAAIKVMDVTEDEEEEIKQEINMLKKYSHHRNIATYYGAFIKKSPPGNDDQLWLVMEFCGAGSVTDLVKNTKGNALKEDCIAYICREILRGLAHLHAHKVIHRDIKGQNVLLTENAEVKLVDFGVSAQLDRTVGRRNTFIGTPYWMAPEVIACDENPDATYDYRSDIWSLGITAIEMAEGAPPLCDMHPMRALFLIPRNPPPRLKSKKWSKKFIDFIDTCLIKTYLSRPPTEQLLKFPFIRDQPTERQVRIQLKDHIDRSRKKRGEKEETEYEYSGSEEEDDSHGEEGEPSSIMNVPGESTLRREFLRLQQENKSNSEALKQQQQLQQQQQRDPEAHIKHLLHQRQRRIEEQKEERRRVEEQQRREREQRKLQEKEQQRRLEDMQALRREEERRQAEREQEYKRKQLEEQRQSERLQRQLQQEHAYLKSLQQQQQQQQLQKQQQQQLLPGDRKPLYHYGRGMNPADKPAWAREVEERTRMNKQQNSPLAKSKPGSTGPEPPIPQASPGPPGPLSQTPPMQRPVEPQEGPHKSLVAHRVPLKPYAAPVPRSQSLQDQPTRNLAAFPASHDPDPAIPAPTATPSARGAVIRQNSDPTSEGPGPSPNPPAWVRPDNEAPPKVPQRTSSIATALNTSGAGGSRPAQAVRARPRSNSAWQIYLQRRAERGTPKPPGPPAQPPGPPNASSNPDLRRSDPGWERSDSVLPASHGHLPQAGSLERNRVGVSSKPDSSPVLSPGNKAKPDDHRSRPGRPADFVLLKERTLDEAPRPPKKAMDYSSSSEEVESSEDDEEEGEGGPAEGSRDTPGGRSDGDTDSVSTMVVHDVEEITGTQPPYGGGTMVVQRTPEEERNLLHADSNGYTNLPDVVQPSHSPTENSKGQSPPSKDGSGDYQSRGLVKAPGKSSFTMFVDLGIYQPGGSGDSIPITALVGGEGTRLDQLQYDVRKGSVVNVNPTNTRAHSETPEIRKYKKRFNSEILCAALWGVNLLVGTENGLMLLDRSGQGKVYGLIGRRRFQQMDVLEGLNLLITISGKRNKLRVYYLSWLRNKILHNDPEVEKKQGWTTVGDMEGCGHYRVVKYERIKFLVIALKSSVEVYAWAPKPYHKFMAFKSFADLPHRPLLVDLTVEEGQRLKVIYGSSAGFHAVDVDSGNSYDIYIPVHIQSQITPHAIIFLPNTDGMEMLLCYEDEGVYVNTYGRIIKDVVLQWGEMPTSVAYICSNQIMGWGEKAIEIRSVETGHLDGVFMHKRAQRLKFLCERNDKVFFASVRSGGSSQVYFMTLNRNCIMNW

[8] = biological target: T5, FLT3(K663Q) (Homo sapiens, UniProt P36888, K663Q)
T5 construct: purchased Eurofins DiscoverX Corporation

[9] = biological target: CHEK2 (Homo sapiens, UniProt O96017)
[10] = biological target: ROCK1 (Homo sapiens, UniProt Q13464)
[11] = biological target: T6, JNK2 (Homo sapiens, UniProt P45984)
T6 construct: purchased Eurofins DiscoverX (KINOMEscan)

[12] = biological target: T7, MAP4K4 (Homo sapiens, UniProt O95819)
T7 construct: purchased Eurofins DiscoverX Corporation

[13] = biological target: SRPK1 (Homo sapiens, UniProt Q96SB4)
SRPK1, sequence (Q96SB4 whole entry): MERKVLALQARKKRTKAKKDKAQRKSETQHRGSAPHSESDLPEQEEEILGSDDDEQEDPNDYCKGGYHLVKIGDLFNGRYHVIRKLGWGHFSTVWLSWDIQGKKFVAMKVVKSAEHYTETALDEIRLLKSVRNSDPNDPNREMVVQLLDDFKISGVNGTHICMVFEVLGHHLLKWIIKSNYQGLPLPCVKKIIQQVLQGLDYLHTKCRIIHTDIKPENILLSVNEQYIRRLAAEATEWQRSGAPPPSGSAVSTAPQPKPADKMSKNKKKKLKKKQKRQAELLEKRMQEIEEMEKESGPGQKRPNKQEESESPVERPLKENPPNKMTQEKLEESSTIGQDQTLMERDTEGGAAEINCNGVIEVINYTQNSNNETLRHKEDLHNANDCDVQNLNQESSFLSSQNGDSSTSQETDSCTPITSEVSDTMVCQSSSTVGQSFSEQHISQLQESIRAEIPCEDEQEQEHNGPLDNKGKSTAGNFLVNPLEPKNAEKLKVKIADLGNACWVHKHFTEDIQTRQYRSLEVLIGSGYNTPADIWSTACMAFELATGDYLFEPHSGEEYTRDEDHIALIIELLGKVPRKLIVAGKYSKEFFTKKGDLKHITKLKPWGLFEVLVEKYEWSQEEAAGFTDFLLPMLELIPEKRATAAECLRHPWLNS

[14] = biological target: CLK4 (Homo sapiens, UniProt Q9HAZ1)
[15] = biological target: T8, LOK (Homo sapiens, UniProt O94804)
T8 construct: purchased Eurofins DiscoverX Corporation

[16] = biological target: EGFR(L747-E749del+A750P) (Homo sapiens, UniProt P00533, A750P/DEL747-749)
[17] = biological target: CDK4 (Homo sapiens, UniProt P11802)
[18] = biological target: RET(V804L) (Homo sapiens, UniProt P07949, V804L)
[19] = biological target: T9, MAP4K2 (Homo sapiens, UniProt Q12851)
T9 construct: purchased Eurofins DiscoverX Corporation

[20] = biological target: T10, SYK (Homo sapiens, UniProt P43405)
T10 construct: purchased Eurofins DiscoverX Corporation

[21] = biological target: T11, BRAF(V600E) (Homo sapiens, UniProt P15056, V600E)
T11 construct: purchased Eurofins DiscoverX Corporation (KINOMEscan)

[22] = biological target: T12, BRK (Homo sapiens, UniProt Q13882)
T12 construct: purchased Eurofins DiscoverX Corporation (KINOMEscan)

[23] = biological target: BLK (Homo sapiens, UniProt P51451)
[24] = biological target: SIK (Homo sapiens, UniProt P57059)
[25] = biological target: ERK2 (Homo sapiens, UniProt P28482)
[26] = biological target: PCTK3 (Homo sapiens, UniProt Q07002)
[27] = biological target: PCTK1 (Homo sapiens, UniProt Q00536)
[28] = biological target: T13, BMPR2 (Homo sapiens, UniProt Q13873)
T13 construct: purchased Eurofins DiscoverX Corporation (KINOMEscan)

[29] = biological target: PRKCQ (Homo sapiens, UniProt Q04759)
[30] = biological target: FGR (Homo sapiens, UniProt P09769)
[31] = biological target: T14, LRRK2(G2019S) (Homo sapiens, UniProt Q5S007, G2019S)
T14 construct: purchased Eurofins DiscoverX Corporation
T14 sequence (Q5S007 whole entry G2019S): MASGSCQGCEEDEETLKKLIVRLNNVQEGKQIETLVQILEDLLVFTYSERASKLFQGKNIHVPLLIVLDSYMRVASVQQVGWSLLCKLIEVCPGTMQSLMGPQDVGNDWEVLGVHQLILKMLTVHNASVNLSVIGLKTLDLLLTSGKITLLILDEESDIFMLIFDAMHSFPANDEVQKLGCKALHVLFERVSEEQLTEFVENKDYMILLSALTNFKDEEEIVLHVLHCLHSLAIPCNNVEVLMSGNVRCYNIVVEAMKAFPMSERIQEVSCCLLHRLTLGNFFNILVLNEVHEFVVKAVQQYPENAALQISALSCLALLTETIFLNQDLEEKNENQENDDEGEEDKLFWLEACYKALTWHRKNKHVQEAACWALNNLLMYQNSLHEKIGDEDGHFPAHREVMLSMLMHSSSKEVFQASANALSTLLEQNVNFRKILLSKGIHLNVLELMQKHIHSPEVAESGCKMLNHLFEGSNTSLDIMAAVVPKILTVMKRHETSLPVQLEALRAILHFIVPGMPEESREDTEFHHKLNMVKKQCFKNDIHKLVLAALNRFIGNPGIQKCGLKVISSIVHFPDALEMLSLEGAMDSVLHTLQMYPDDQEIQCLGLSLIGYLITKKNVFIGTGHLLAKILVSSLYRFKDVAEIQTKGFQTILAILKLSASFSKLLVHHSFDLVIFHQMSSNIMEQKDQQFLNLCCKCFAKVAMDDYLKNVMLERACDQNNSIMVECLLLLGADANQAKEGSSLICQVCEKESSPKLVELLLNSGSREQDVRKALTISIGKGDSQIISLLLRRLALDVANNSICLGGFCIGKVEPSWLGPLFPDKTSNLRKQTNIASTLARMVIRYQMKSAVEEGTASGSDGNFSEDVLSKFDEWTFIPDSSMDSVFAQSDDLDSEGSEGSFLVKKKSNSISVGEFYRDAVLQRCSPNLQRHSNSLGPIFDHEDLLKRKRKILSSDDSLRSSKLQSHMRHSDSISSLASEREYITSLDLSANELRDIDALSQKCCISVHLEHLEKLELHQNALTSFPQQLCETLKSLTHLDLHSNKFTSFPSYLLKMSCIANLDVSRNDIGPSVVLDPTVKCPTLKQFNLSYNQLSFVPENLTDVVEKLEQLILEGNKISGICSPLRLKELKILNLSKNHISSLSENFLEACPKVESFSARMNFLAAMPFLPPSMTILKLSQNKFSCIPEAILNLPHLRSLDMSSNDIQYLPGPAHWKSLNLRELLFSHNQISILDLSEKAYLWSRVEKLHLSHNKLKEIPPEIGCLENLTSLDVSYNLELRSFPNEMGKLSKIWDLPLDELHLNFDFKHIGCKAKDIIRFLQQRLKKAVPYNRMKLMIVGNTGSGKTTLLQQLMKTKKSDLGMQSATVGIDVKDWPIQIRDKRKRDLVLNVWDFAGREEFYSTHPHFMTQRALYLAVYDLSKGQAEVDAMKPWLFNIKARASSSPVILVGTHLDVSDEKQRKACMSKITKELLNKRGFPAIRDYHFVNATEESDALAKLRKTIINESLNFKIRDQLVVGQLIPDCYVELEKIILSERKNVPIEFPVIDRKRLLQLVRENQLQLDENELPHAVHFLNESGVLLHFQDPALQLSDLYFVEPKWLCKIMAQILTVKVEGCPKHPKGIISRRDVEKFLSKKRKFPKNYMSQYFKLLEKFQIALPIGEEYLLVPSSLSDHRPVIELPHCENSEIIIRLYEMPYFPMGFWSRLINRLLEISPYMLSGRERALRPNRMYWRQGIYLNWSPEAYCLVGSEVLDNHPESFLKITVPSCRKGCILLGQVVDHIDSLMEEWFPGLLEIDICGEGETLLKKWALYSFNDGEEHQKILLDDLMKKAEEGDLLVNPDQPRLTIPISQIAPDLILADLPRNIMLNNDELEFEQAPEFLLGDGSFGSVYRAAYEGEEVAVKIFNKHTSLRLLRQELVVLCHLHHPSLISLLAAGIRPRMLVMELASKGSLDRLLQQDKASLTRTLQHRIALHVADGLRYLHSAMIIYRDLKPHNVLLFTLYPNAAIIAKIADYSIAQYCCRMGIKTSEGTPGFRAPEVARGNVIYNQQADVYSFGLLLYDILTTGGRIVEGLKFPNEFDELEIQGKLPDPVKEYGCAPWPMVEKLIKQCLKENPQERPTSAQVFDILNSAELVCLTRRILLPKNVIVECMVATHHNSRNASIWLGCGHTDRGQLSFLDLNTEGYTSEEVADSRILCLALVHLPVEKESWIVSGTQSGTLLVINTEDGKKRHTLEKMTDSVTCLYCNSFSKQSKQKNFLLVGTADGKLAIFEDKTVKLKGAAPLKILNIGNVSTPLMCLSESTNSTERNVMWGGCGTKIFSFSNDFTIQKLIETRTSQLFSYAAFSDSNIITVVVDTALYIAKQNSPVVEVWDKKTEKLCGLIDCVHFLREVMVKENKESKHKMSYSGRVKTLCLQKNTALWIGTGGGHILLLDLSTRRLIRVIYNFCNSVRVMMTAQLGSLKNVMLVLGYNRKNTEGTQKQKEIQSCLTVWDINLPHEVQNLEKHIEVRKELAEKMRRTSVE

[32] = biological target: T15, DAPK1 (Homo sapiens, UniProt P53355)
T15 construct: purchased Eurofins DiscoverX Corporation

[33] = biological target: PKN1 (Homo sapiens, UniProt Q16512)
[34] = biological target: T16, ABL1-phosphorylated (Homo sapiens, UniProt P00519)
T16 construct: purchased Eurofins DiscoverX Corporation

[35] = biological target: T17, MST1 (Homo sapiens, UniProt Q13043)
T17 construct: purchased Eurofins DiscoverX Corporation

[36] = biological target: CDK8 (Homo sapiens, UniProt P49336)
[37] = biological target: T18, TIE2 (Homo sapiens, UniProt Q02763)
T18 construct: purchased Eurofins DiscoverX Corporation

[38] = biological target: SRPK3 (Homo sapiens, UniProt Q9UPE1)
SRPK3, sequence (Q9UPE1 whole entry): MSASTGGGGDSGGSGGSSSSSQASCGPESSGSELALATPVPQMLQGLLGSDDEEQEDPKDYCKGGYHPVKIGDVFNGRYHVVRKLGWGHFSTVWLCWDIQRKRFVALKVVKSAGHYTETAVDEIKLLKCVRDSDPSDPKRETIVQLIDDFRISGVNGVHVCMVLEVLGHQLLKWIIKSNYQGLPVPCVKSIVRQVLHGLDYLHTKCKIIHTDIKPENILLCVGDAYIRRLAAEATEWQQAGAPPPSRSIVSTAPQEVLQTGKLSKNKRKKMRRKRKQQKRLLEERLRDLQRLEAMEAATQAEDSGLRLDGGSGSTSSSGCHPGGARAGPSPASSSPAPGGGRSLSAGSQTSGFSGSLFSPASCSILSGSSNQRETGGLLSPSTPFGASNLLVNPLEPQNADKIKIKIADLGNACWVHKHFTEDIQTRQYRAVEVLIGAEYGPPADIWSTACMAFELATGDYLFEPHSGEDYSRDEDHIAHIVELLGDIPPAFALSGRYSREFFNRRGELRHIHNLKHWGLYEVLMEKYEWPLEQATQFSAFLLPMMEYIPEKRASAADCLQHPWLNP

[39] = biological target: SBK1 (Homo sapiens, UniProt Q52WX2)
[40] = biological target: T19, NEK4 (Homo sapiens, UniProt P51957)
T19 construct: purchased Eurofins DiscoverX Corporation

[41] = biological target: ANKK1 (Homo sapiens, UniProt Q8NFD2)
[42] = biological target: T20, DCAMKL3 (Homo sapiens, UniProt Q9C098)
T20 construct: purchased Eurofins DiscoverX Corporation

## C=CC(=O)Nc1ccc(OC)c(Nc2cc(-c3[nH]c(CC)nc3-c3cccc(NC(=O)c4cccc5c4NC(=O)c4ccccc4N5)c3)ccn2)c1 [Compound 4]
[1]
  POC: 100% of control
[2]
  POC: 100% of control
[3]
  POC: 100% of control
[4]
  POC: 100% of control
[5]
  POC: 100% of control
[6]
  POC: 85% of control
[7]
  POC: 10% of control
[8]
  POC: 87% of control
[9]
  POC: 87% of control
[10]
  POC: 100% of control
[11]
  POC: 78% of control
[12]
  POC: 6.1% of control
[13]
  POC: 100% of control
[14]
  POC: 100% of control
[15]
  POC: 49% of control
[16]
  POC: 8% of control
[17]
  POC: 100% of control
[18]
  POC: 99% of control
[19]
  POC: 36% of control
[20]
  POC: 63% of control
[21]
  POC: 100% of control
[22]
  POC: 96% of control
[23]
  POC: 1.7% of control
[24]
  POC: 100% of control
[25]
  POC: 100% of control
[26]
  POC: 93% of control
[27]
  POC: 100% of control
[28]
  POC: 88% of control
[29]
  POC: 18% of control
[30]
  POC: 19% of control
[31]
  POC: 100% of control
[32]
  POC: 86% of control
[33]
  POC: 88% of control
[34]
  POC: 80% of control
[35]
  POC: 6% of control
[36]
  POC: 81% of control
[37]
  POC: 71% of control
[38]
  POC: 100% of control
[39]
  POC: 84% of control
[40]
  POC: 100% of control
[41]
  POC: 87% of control
[42]
  POC: 86% of control
